Biological target: Complement factor D (Homo sapiens, UniProt P00746)
Experiment: Enzyme Assay: Human factor D (purified from human serum, Complement Technology, Inc.) at 80 nM final concentration is incubated with test compound at various concentrations for 5 minutes at room temperature in 50 mM Tris, 1M NaCl, pH 7.5. A synthetic substrate Z-L-Lys-SBzl and DTNB (Ellman's reagent) are added to final concentrations of 100 µM each. The increase in color is recorded at OD405 nm in a microplate in kinetic mode over 30 minutes with 30 second time points in a […]. IC50 values are calculated by non-linear regression from the percentage of inhibition of complement factor D activity as a function of test compound concentration.

Chain of Complement factor D (P00746 whole entry): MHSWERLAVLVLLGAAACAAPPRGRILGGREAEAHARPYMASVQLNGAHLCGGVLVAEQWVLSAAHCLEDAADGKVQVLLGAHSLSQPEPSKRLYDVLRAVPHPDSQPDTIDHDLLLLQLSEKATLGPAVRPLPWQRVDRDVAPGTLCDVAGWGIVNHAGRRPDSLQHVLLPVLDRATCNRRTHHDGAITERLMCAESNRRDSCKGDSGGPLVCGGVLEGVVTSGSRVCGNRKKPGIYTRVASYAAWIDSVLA

Row | SMILES | IC50 [nM]
1 | CC(=O)c1cn(CC(=O)N2C[C@H](F)C[C@H]2C(=O)Nc2cccc(Br)n2)c2ccc(Oc3ncc(Br)cn3)cc12 | < 1000
2 | CC(=O)c1cn(CC(=O)N2[C@@H]3C[C@@H]3C[C@H]2C(=O)Nc2cccc(-c3ccccc3Cl)c2F)c2ccc(Oc3ncc(Br)cn3)cc12 | < 1000

— ChEMBL document CHEMBL5726339, “Ether compounds for treatment of complement mediated disorders” (2017)
